Experiments:
Test in all cases: relative viability (nuclei count vs DMSO), 5 days (fraction); higher = more cells survive
[1] = compound: CCC1=CN=CN=C1N2CCN(CC2)CC3=NC4=C(N3)C=C(C=C4)C(F)(F)F + C[C@@H](Oc1cc(-c2cnn(C3CCNCC3)c2)cnc1N)c1c(Cl)ccc(F)c1Cl [Crizotinib] (partner 1 µM)
Procedure, shortened: (§1)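 A single step with final 0.05% Triton X-100, 1% formaldehyde and 1 ug/ml Hoechst fixed the cells and stained nuclei 5 days after treatment. Lung cancer cell lines in 1536-well plates had been treated by pin tool the day after seeding with one drug alone or a fixed anchor-drug dose plus five library-drug doses (not always all listed) in √10 steps, and nuclei were counted on 4× images. Relative viability is the ratio of nuclei in treated wells to nuclei in vehicle wells, taken as the median of duplicate plates.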

[2] = compound: CCC1=CN=CN=C1N2CCN(CC2)CC3=NC4=C(N3)C=C(C=C4)C(F)(F)F + C[C@]1(O)C[C@@H](c2nc(-c3ccc4ccc(-c5ccccc5)nc4c3)c3c(N)nccn32)C1 [Linsitinib] (partner 1 µM)
Procedure, shortened: as §1

[3] = compound: CCC1=CN=CN=C1N2CCN(CC2)CC3=NC4=C(N3)C=C(C=C4)C(F)(F)F + Nc1ncn([C@H]2C[C@H](O)[C@@H](CO)O2)c(=O)n1 [Decitabine] (partner 2 µM)
Procedure, shortened: as §1

Mirin + Bortezomib = compound: N=C1NC(=O)/C(=C/c2ccc(O)cc2)S1 [Mirin] + CC(C)C[C@H](NC(=O)[C@H](Cc1ccccc1)NC(=O)c1cnccn1)B(O)O [Bortezomib] (partner 0.002 µM)
Procedure, shortened: as §1

| Cell Line | relative viability ([1]; first compound 0.04 µM) | relative viability ([1]; first compound 0.1265 µM) | relative viability ([1]; first compound 0.4 µM) | relative viability ([1]; first compound 1.265 µM) | relative viability ([1]; first compound 4 µM) | relative viability ([2]; first compound 0.04 µM) | relative viability ([2]; first compound 0.1265 µM) | relative viability ([2]; first compound 0.4 µM) | relative viability ([2]; first compound 1.265 µM) | relative viability ([2]; first compound 4 µM) | relative viability ([3]; first compound 0.04 µM) | relative viability ([3]; first compound 0.1265 µM) | relative viability ([3]; first compound 0.4 µM) | relative viability ([3]; first compound 1.265 µM) | relative viability ([3]; first compound 4 µM) | relative viability (Mirin + Bortezomib; first compound 0.25 µM) | relative viability (Mirin + Bortezomib; first compound 0.7906 µM) | relative viability (Mirin + Bortezomib; first compound 2.5 µM) | relative viability (Mirin + Bortezomib; first compound 7.906 µM) | relative viability (Mirin + Bortezomib; first compound 25 µM) |
| --- | --- | --- | --- | --- | --- | --- | --- | --- | --- | --- | --- | --- | --- | --- | --- | --- | --- | --- | --- | --- |
| LCLC-103H | 1.09 | 1.01 | 1.04 | 1 | 1.16 | 1.11 | 1.13 | 0.999 | 1.17 | 1.2 | 0.708 | 0.698 | 0.712 | 0.748 | 0.728 | 1.12 | 1.07 | 0.959 | 1.23 | 1.12 |
| LOU-NH91 | 0.695 | 0.696 | 0.761 | 0.779 | 0.801 | 0.807 | 0.923 | 0.963 | 0.87 | 1.04 | 0.797 | 0.79 | 0.806 | 0.841 | 0.816 | 0.417 | – | 0.47 | 0.455 | 0.503 |
| LU99A | 0.543 | 0.53 | 0.541 | 1 | 1.09 | 0.514 | 0.563 | 0.581 | 0.525 | 0.562 | 0.906 | 0.877 | 0.785 | 0.837 | 0.843 | 1.07 | 0.93 | 1.17 | 1 | 0.968 |
| LXF-289 | 0.823 | 0.754 | 0.825 | 0.781 | 0.87 | 0.983 | 0.957 | 0.983 | 0.976 | 0.954 | 0.348 | 0.325 | 0.426 | 0.343 | 0.419 | 0.99 | 1.08 | 1.01 | 1.02 | 1.11 |
| NCI-H23 | 0.591 | 0.559 | 0.574 | 0.689 | 0.989 | 0.681 | 0.689 | 0.59 | 0.623 | 0.638 | 0.288 | 0.31 | 0.282 | 0.252 | 0.358 | 1.3 | – | 1.15 | 0.842 | 0.817 |
| NCI-H322M | 0.956 | 0.868 | 0.918 | 0.896 | 1.37 | 0.979 | 0.801 | 0.911 | 0.909 | 1.02 | 0.687 | 0.658 | 0.632 | 0.654 | 0.699 | 1.22 | 1.29 | 1.41 | 1.42 | 1.24 |
| NCI-H441 | 0.742 | 0.627 | 0.789 | 0.859 | 1.04 | 0.526 | 0.553 | 0.444 | 0.489 | 0.497 | 0.239 | 0.212 | 0.21 | 0.264 | 0.315 | 0.387 | 0.645 | 0.449 | 0.314 | 0.409 |
| NCI-H460 | 1.06 | 1.03 | 0.886 | 0.832 | 1.14 | 0.891 | 0.683 | 0.828 | 0.716 | 0.718 | 0.535 | 0.424 | 0.496 | 0.435 | 0.452 | 1.22 | 1.2 | 1.21 | 1.12 | 1.15 |
| NCI-H520 | 0.73 | 0.784 | 0.837 | 0.796 | 1.12 | 0.908 | 0.93 | 0.886 | 0.773 | 0.861 | 0.598 | 0.414 | 0.426 | 0.424 | 0.436 | 0.503 | 0.13 | 0.632 | 0.355 | 0.358 |
| NCI-H596 | 0.91 | 1.06 | 0.971 | 1 | 1.14 | 1.14 | 1.08 | 1.09 | 1.06 | 1.02 | 1 | 1.01 | 0.958 | 0.853 | 1.06 | 1.12 | – | 0.982 | 1 | 0.905 |
| NCI-H647 | 1.12 | 1.13 | – | 1.04 | 1.19 | 1.33 | 1.18 | – | 1.24 | 1.31 | 0.449 | 0.273 | 0.356 | 0.325 | 0.301 | 1.24 | 0.909 | 1.04 | 0.816 | 0.444 |
| NCI-H650 | 0.741 | 0.724 | 0.765 | 0.757 | 1.1 | 0.7 | 1.03 | 1.01 | 0.864 | 0.804 | 0.313 | 0.306 | 0.328 | 0.271 | 0.287 | 0.915 | – | 0.84 | – | 0.937 |
| NCI-H661 | 0.996 | 0.943 | 0.964 | 0.951 | 1.1 | 0.711 | 0.629 | 0.622 | – | 0.483 | 0.557 | 0.522 | 0.524 | 0.472 | 0.55 | 0.696 | 0.787 | 0.836 | 0.518 | 0.527 |
| NCI-H727 | 0.986 | 0.863 | 0.712 | – | 0.919 | 0.246 | 0.183 | 0.495 | – | 0.299 | 0.798 | 0.875 | 0.956 | 0.655 | 0.941 | 1.24 | 1.18 | 0.832 | 0.997 | 0.907 |
| NCI-H838 | 0.917 | 0.845 | 0.908 | 0.947 | 1.27 | 0.991 | 0.912 | 0.941 | 0.916 | 1.05 | 0.418 | 0.408 | 0.475 | 0.433 | 0.444 | 0.865 | 0.521 | 0.884 | 0.78 | 0.738 |
| NCI-H1355 | 1.07 | 1.01 | 1 | 1.14 | 1.15 | 0.852 | 0.745 | 0.806 | 0.732 | 0.913 | 0.326 | 0.388 | 0.344 | 0.339 | 0.359 | 1.3 | 1.19 | 1.16 | 1.23 | 1.38 |
| NCI-H1437 | 0.969 | 0.799 | 0.964 | 0.903 | 0.752 | 1.03 | 0.967 | 0.896 | 0.836 | 0.634 | 0.537 | 0.529 | 0.531 | 0.589 | 0.487 | 0.498 | 0.436 | 0.438 | 0.41 | 0.472 |

From the supplement of paper PMC10307832
